Measurements from US9493486B2, “Diazaspirocycloalkane and azaspirocycloalkane” (Hoffmann-La Roche Inc., priority 2012, dated 2016).

Molecular target: ATX (human His-tagged) (Homo sapiens (Human), UniProt Q13822)
Assay: Human ATX enzyme inhibition assay (fluorescence quenching, MR121 substrate)
Format: biochemical
Conditions: 30 nM ATX, 1 μM MR121 substrate, 30° C.
Excerpt: Human ATX Enzyme Inhibition Assay
Assay working solutions were made as follows:

Row | Structure (SMILES) | IC50 [nM]
1 | O=C(OCc1ccc(OC(F)(F)F)cc1F)N1CCC2(CC1)CN(C(=O)N1CCc3[nH]nnc3C1)C2 [Example 13.01, 2-fluoro-4-(trifluoromethoxy)benzyl 2-(4,5,6,7-tetrahydro-1H-[1,2,3]triazolo[4,5-c]pyridine-5-carbonyl)-2,7-diazaspiro[3.5]nonane-7-carboxylate] | 1
2 | O=C(OCc1ccc(F)c(Cl)c1)N1CCC2(CC1)CN(C(=O)c1ccc3[nH]nnc3c1)C2 [Example 12.11, 3-chloro-4-fluorobenzyl 2-(1H-benzo[d][1,2,3]triazole-5-carbonyl)-2,7-diazaspiro[3.5]nonane-7-carboxylate] | 168
3 | O=C(NC1CC2(C1)CN(C(=O)CCc1cc(Cl)cc(Cl)c1)C2)c1ccc2[nH]nnc2c1 [Example 1.11, N-(2-(3-(3,5-dichlorophenyl)propanoyl)-2-azaspiro[3.3]heptan-6-yl)-1H-benzo[d][1,2,3]triazole-5-carboxamide] | 155
4 | O=C(OCc1cc(Cl)cc(C(F)(F)F)c1)N1CCC2(CC1)CN(C(=O)c1ccc3[nH]nnc3c1)C2 [Example 12.44, 3-chloro-5-(trifluoromethyl)benzyl 2-(1H-benzo[d][1,2,3]triazole-5-carbonyl)-2,7-diazaspiro[3.5]nonane-7-carboxylate] | 8
5 | O=C(c1cc(Cl)cc(Cl)c1)N1CCC2(CC1)CN(C(=O)c1ccc3[nH]nnc3c1)C2 [Example 6.3, (2-(1H-benzo[d][1,2,3]triazole-5-carbonyl)-2,7-diazaspiro[3.5]nonan-7-yl)(3,5-dichlorophenyl)methanone] | 2660
6 | CS(=O)(=O)c1cc(Cl)cc(COC(=O)N2CCC3(CC2)CN(S(=O)(=O)c2ccc4[nH]c(=O)oc4c2)C3)c1 [Example 12.31, 3-chloro-5-(methylsulfonyl)benzyl 2-(2-oxo-2,3-dihydrobenzo[d]oxazol-6-ylsulfonyl)-2,7-diazaspiro[3.5]nonane-7-carboxylate] | 22
7 | O=C(NCc1cnn[nH]1)C1CC2(CCN(C(=O)/C=C/c3ccc(OC(F)(F)F)cc3)CC2)C1 [Example 6.8, (E)-N-((1H-1,2,3-triazol-5-yl)methyl)-7-(3-(4-(trifluoromethoxy)phenyl)acryloyl)-7-azaspiro[3.5]nonane-2-carboxamide] | 91
8 | O=C(COc1cc(Cl)cc(Cl)c1)N1CCC2(CC1)CN(C(=O)c1ccc3[nH]nnc3c1)C2 [Example 6.2, 1-(2-(1H-benzo[d][1,2,3]triazole-5-carbonyl)-2,7-diazaspiro[3.5]nonan-7-yl)-2-(3,5-dichlorophenoxy)ethanone] | 298
9 | O=C(NC1CC2(C1)CC(C(=O)Nc1ccc3[nH]nnc3c1)C2)OCc1cc(Cl)cc(Cl)c1 (centres unmarked) [Example 12.29, 3,5-dichlorobenzyl 6-(1H-benzo[d][1,2,3]triazol-5-ylcarbamoyl)spiro[3.3]heptan-2-ylcarbamate] | 68.5
10 | O=C(OCc1cc(F)cc(OC(F)(F)F)c1)N1CCC2(CCCN(C(=O)c3ccc4[nH]nnc4c3)C2)C1 (centres unmarked) [Example 1.20, 3-fluoro-5-(trifluoromethoxy)benzyl 7-(1H-benzo[d][1,2,3]triazole-5-carbonyl)-2,7-diazaspiro[4.5]decane-2-carboxylate] | 120
11 | Nc1ccc(C(=O)N2CC3(CCN(C(=O)CCc4cc(Cl)cc(Cl)c4)CC3)C2)cc1O [Example 1.05, 1-(2-(4-amino-3-hydroxybenzoyl)-2,7-diazaspiro[3.5]nonan-7-yl)-3-(3,5-dichlorophenyl)propan-1-one] | 1040
12 | O=C(CCc1ccc(OC(F)(F)F)cc1)N1CCC2(CC1)CN(C(=O)c1ccc3[nH]nnc3c1)C2 [Example 1.24, 1-(2-(1H-benzo[d][1,2,3]triazole-5-carbonyl)-2,7-diazaspiro[3.5]nonan-7-yl)-3-(4-(trifluoromethoxy)phenyl)propan-1-one] | 12
13 | O=C(OCc1ccc(C(F)(F)F)cc1)N1CCC2(CC1)CN(C(=O)c1ccc3[nH]nnc3c1)C2 [Example 12.15, 4-(trifluoromethyl)benzyl 2-(1H-benzo[d][1,2,3]triazole-5-carbonyl)-2,7-diazaspiro[3.5]nonane-7-carboxylate] | 35
14 | O=C(c1ccc2[nH]nnc2c1)N1CC2(CCN(S(=O)(=O)CCc3cccc(Cl)c3)CC2)C1 [Example 1.21, (1H-benzotriazol-5-yl)-{7-[2-(3-chloro-phenyl)-ethanesulfonyl]-2,7-diaza-spiro[3.5]non-2-yl}-methanone] | 821
15 | O=C(OCc1ccc(C(F)(F)F)cc1F)N1CCC2(CC1)CN(C(=O)[C@H]1CCc3[nH]nnc3C1)C2 [Example 16A, (S)-[2-Fluoro-4-(trifluoromethyl)phenyl]methyl 2-[4,5,6,7-tetrahydro-1H-benzotriazole-5-carbonyl]-2,7-diazaspiro[3.5]nonane-7-carboxylate] | 100
16 | O=C(c1ccc2[nH]nnc2c1)N1CC2(CCN(c3nnc(-c4ccc(Cl)cc4)s3)CC2)C1 [Example 8, (1H-Benzo[d][1,2,3]triazol-5-yl)(7-(5-(4-chlorophenyl)-1,3,4-thiadiazol-2-yl)-2,7-diazaspiro[3.5]nonan-2-yl)methanone] | 178

Row | Structure (SMILES) | IC50 [nM]
17 | CS(=O)(=O)c1cc(Cl)cc(COC(=O)N2CCC3(CC2)CN(C(=O)c2ccc(S(N)(=O)=O)cc2)C3)c1 [Example 1.17, 3-chloro-5-(methylsulfonyl)benzyl 2-(4-sulfamoylbenzoyl)-2,7-diazaspiro[3.5]nonane-7-carboxylate] | 729
18 | O=C(OCc1ccc(OCC(F)(F)F)cc1)N1CCC2(CC1)CN(C(=O)C1CCc3nn[nH]c3C1)C2 (centres unmarked) [Example 12.39, 4-(2,2,2-trifluoroethoxy)benzyl 2-(4,5,6,7-tetrahydro-1H-benzo[d][1,2,3]triazole-6-carbonyl)-2,7-diazaspiro[3.5]nonane-7-carboxylate] | 5
19 | O=C(OCc1ccc(OC(F)(F)F)cc1)N1CCC2(CC1)CN(C(=O)C1CCc3[nH]nnc3C1)C2 (centres unmarked) [Example 12.43, 4-(trifluoromethoxy)benzyl 2-(4,5,6,7-tetrahydro-1H-benzo[d][1,2,3]triazole-5-carbonyl)-2,7-diazaspiro[3.5]nonane-7-carboxylate] | 1
20 | O=C(NC1CC2(C1)CN(C(=O)c1ccc3[nH]nnc3c1)C2)OCc1ccccc1 [Example 1.10, [2-(1H-benzotriazole-5-carbonyl)-2-aza-spiro[3.3]hept-6-yl]-carbamic acid benzyl ester] | 3700
21 | O=C(OCc1ccc(C(F)(F)F)cc1F)N1CCC2(CC1)CN(C(=O)[C@@H]1CCc3[nH]nnc3C1)C2 [Example 16B, (R)-[2-fluoro-4-(trifluoromethyl)phenyl]methyl 2-[4,5,6,7-tetrahydro-1H-benzotriazole-5-carbonyl]-2,7-diazaspiro[3.5]nonane-7-carboxylate] | 9
22 | Cc1ccc(COC(=O)N2CC3(CC(NC(=O)c4ccc5[nH]nnc5c4)C3)C2)cc1Cl [Example 12.24, 6-[(1H-benzotriazole-5-carbonyl)-amino]-2-aza-spiro[3.3]heptane-2-carboxylic acid 3-chloro-4-methyl-benzyl ester] | 229
23 | O=C(OCc1cc(Cl)cc(Cl)c1)N1CCC2(CC1)CN(C(=O)c1ccc3[nH]nnc3c1)C2 [Example 1, 3,5-Dichlorobenzyl 2-(1H-benzo[d][1,2,3]triazole-5-carbonyl)-2,7-diazaspiro[3.5]nonane-7-carboxylate] | 15
24 | O=C(NC1CC2(C1)CN(C(=O)OCc1cc(F)cc(C(F)(F)F)c1)C2)c1ccc2[nH]nnc2c1 [Example 12.23, 6-[(1H-benzotriazole-5-carbonyl)-amino]-2-aza-spiro[3.3]heptane-2-carboxylic acid 3-fluoro-5-trifluoromethyl-benzyl ester] | 1910
25 | O=C(c1ccc2[nH]nnc2c1)N1CC2(CCN(c3nnc(-c4cc(Cl)cc(Cl)c4)o3)CC2)C1 [Example 7, (1H-benzo[d][1,2,3]triazol-5-yl)(7-(5-(3,5-dichlorophenyl)-1,3,4-oxadiazol-2-yl)-2,7-diazaspiro[3.5]nonan-2-yl)methanone] | 43
26 | O=C(/C=C/c1cc(Cl)cc(Cl)c1)N1CCC2(CC1)CN(C(=O)c1ccc3[nH]c(=O)oc3c1)C2 [Example 6.4, 6-{7-[(E)-3-(3,5-dichloro-phenyl)-acryloyl]-2,7-diaza-spiro[3.5]nonane-2-carbonyl}-3H-benzooxazol-2-one] | 22
27 | Nc1ccc(C(=O)N2CC3(CCN(C(=O)OCc4cc(Cl)cc(Cl)c4)CC3)C2)cc1O [Example 1.06, 3,5-dichlorobenzyl 2-(4-amino-3-hydroxybenzoyl)-2,7-diazaspiro[3.5]nonane-7-carboxylate] | 107
28 | O=C(CCc1cc(Cl)cc(Cl)c1)N1CCC2(CC1)CC(Nc1ccc3[nH]c(=O)oc3c1)C2 [Example 6.1, 6-(7-(3-(3,5-dichlorophenyl)propanoyl)-7-azaspiro[3.5]nonan-2-ylamino)benzo[d]oxazol-2(3H)-one] | 362
29 | CS(=O)(=O)c1cc(Cl)cc(COC(=O)N2CCC3(CC2)CN(C(=O)c2ccc4[nH]nnc4c2)C3)c1 [Example 1.09, 3-chloro-5-(methylsulfonyl)benzyl 2-(1H-benzo[d][1,2,3]triazole-5-carbonyl)-2,7-diazaspiro[3.5]nonane-7-carboxylate] | 50.5
30 | O=C(NCc1cnn[nH]1)C1CC2(CCN(C(=O)OCc3cc(Cl)cc(Cl)c3)CC2)C1 [Example 12.32, 2-[(3H-[1,2,3]triazol-4-ylmethyl)-carbamoyl]-7-aza-spiro[3.5]nonane-7-carboxylic acid 3,5-dichloro-benzyl ester] | 44
31 | O=C(c1ccc2[nH]nnc2c1)N1CC2(CCN(c3nnc(-c4ccc(Cl)cc4)o3)CC2)C1 [Example 7.1, (1H-benzo[d][1,2,3]triazol-5-yl)(7-(5-(4-chlorophenyl)-1,3,4-oxadiazol-2-yl)-2,7-diazaspiro[3.5]nonan-2-yl)methanone] | 260
32 | O=C(CCc1cc(Cl)cc(Cl)c1)N1CCC2(CC1)CN(C(=O)c1ccc3[nH]c(=O)oc3c1)C2 [Example 5.1, 6-(7-(3-(3,5-dichlorophenyl)propanoyl)-2,7-diazaspiro[3.5]nonane-2-carbonyl)benzo[d]oxazol-2(3H)-one] | 61
